± gives the expanded uncertainty stated by the source.
Test: xn = mol fraction of the nth substance listed
Settings: for viscosity: 100 kPa, Liquid, Concentric cylinders viscometry; for surface tension liquid-gas: 294.2 K, Pendant drop shape

C1CC[C@H]2CCCC[C@@H]2C1 [trans-decahydronaphthalene] + c1ccc2c(c1)CCCC2
viscosity [mPa·s]
Settings	293.15 K	303.15 K	313.15 K	323.15 K	333.15 K	343.15 K	353.15 K	363.15 K	373.15 K
x2 = 0.1044	2.07 ± 0.02	1.74 ± 0.02	1.48 ± 0.02	1.27 ± 0.02	1.1 ± 0.02	0.968 ± 0.021	0.856 ± 0.021	0.765 ± 0.021	0.689 ± 0.021
x2 = 0.2075	2.03 ± 0.02	1.71 ± 0.02	1.46 ± 0.02	1.25 ± 0.02	1.09 ± 0.02	0.957 ± 0.021	0.847 ± 0.021	0.758 ± 0.021	0.683 ± 0.021
x2 = 0.3094	2.02 ± 0.02	1.7 ± 0.02	1.44 ± 0.02	1.24 ± 0.02	1.08 ± 0.02	0.95 ± 0.021	0.842 ± 0.021	0.753 ± 0.021	0.68 ± 0.021
x2 = 0.4109	2 ± 0.02	1.68 ± 0.02	1.43 ± 0.02	1.23 ± 0.02	1.07 ± 0.02	0.943 ± 0.021	0.836 ± 0.021	0.749 ± 0.021	0.676 ± 0.021
x2 = 0.5112	2.02 ± 0.02	1.69 ± 0.02	1.44 ± 0.02	1.24 ± 0.02	1.08 ± 0.02	0.947 ± 0.021	0.84 ± 0.021	0.752 ± 0.021	0.679 ± 0.021
x2 = 0.6106	2.04 ± 0.02	1.71 ± 0.02	1.45 ± 0.02	1.25 ± 0.02	1.08 ± 0.02	0.951 ± 0.021	0.843 ± 0.021	0.755 ± 0.021	0.685 ± 0.021
x2 = 0.7093	2.07 ± 0.02	1.73 ± 0.02	1.46 ± 0.02	1.26 ± 0.02	1.09 ± 0.02	0.958 ± 0.021	0.849 ± 0.021	0.76 ± 0.021	0.687 ± 0.021
x2 = 0.807	2.11 ± 0.03	1.75 ± 0.02	1.48 ± 0.02	1.27 ± 0.02	1.1 ± 0.02	0.968 ± 0.022	0.858 ± 0.021	0.768 ± 0.021	0.694 ± 0.021
x2 = 0.9039	2.17 ± 0.03	1.8 ± 0.02	1.51 ± 0.02	1.29 ± 0.02	1.12 ± 0.02	0.982 ± 0.022	0.87 ± 0.021	0.778 ± 0.021	0.703 ± 0.021

Settings	surface tension liquid-gas [mN/m]
x2 = 0.1044	30.5 ± 0.4
x2 = 0.2075	31 ± 0.4
x2 = 0.3094	31.4 ± 0.4
x2 = 0.4109	32.1 ± 0.4
x2 = 0.5112	32.3 ± 0.4
x2 = 0.6106	32.9 ± 0.4
x2 = 0.7093	33.6 ± 0.4
x2 = 0.807	34.1 ± 0.6
x2 = 0.9039	35 ± 0.4
